Results: PubChem BioAssay AID2060487 (Molecular Pharmacology Branch, DTP, NCI, 2025)

Tested on: 997537-175-T-J1-PDC complex spheroid viability
Experiment: Anticancer human tumor 997537-175-T-J1-PDC patient-derived colon adenocarcinoma cell line growth inhibition [GQUAD]
Details: for IC50: curve of first compound; for viability, T/C: stronger effect = lower value
In short: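 Multi-cell-type spheroids of tumor cells with HUVEC and mesenchymal stem cells, treated with drug combinations. Concentrations descend in half-log steps from near clinical Cmax, or from 10 microM where Cmax is unknown; viability read-out.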

[1] = second compound 0.0316 µM, first compound 0.0316 µM
[2] = second compound 0.0316 µM, first compound 0.316 µM
[3] = second compound 0.1 µM, first compound 0.0316 µM
[4] = second compound 0.1 µM, first compound 0.316 µM
[5] = second compound 0.316 µM, first compound 0.0316 µM
[6] = second compound 0.316 µM, first compound 0.316 µM
[7] = second compound 1 µM, first compound 0.0316 µM
[8] = second compound 1 µM, first compound 0.316 µM
[9] = second compound 3.16 µM, first compound 0.0316 µM
[10] = second compound 3.16 µM, first compound 0.316 µM
[11] = second compound 10 µM, first compound 0.0316 µM
[12] = second compound 10 µM, first compound 0.316 µM
[13] = second compound 0.0316 µM, first compound 0.1 µM
[14] = second compound 0.0316 µM, first compound 1 µM
[15] = second compound 0.0316 µM, first compound 3.16 µM
[16] = second compound 0.0316 µM, first compound 10 µM
[17] = second compound 0.1 µM, first compound 0.1 µM
[18] = second compound 0.1 µM, first compound 1 µM
[19] = second compound 0.1 µM, first compound 3.16 µM
[20] = second compound 0.1 µM, first compound 10 µM
[21] = second compound 0.316 µM, first compound 0.1 µM
[22] = second compound 0.316 µM, first compound 1 µM
[23] = second compound 0.316 µM, first compound 3.16 µM
[24] = second compound 0.316 µM, first compound 10 µM
[25] = second compound 1 µM, first compound 0.1 µM
[26] = second compound 1 µM, first compound 1 µM
[27] = second compound 1 µM, first compound 3.16 µM
[28] = second compound 1 µM, first compound 10 µM
[29] = second compound 3.16 µM, first compound 0.1 µM
[30] = second compound 3.16 µM, first compound 1 µM
[31] = second compound 3.16 µM, first compound 3.16 µM
[32] = second compound 3.16 µM, first compound 10 µM
[33] = second compound 10 µM, first compound 0.1 µM
[34] = second compound 10 µM, first compound 1 µM
[35] = second compound 10 µM, first compound 3.16 µM
[36] = second compound 10 µM, first compound 10 µM
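Further: spheroids exposed to the agents for 7 days.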
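Wherever viability, T/C is given: 100% = DMSO vehicle control viability.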

CC[C@@]1(O)C(=O)OCc2c1cc1n(c2=O)Cc2cc3c(CN(C)C)c(O)ccc3nc2-1 + CN(C)c1ccc(Nc2c3ccc(NC(=O)CCN4CCCC4)cc3nc3cc(NC(=O)CCN4CCCC4)ccc23)cc1
IC50 (second compound 0.0316 µM): > 0.316 µM
IC50 (second compound 0.1 µM): > 0.316 µM
IC50 (second compound 0.316 µM): > 0.316 µM
IC50 (second compound 1 µM): > 0.316 µM
IC50 (second compound 3.16 µM): > 0.316 µM
IC50 (second compound 10 µM): > 0.316 µM
viability, T/C (second compound 0.0316 µM, first compound 0.000999 µM): 90%
viability, T/C (second compound 0.0316 µM, first compound 0.00316 µM): 84.8%
viability, T/C (second compound 0.0316 µM, first compound 0.00999 µM): 86.4%
viability, T/C [1]: 61.1%
viability, T/C (second compound 0.0316 µM, first compound 0.0999 µM): 82.5%
viability, T/C [2]: 64.2%
viability, T/C (second compound 0.1 µM, first compound 0.000999 µM): 99%
viability, T/C (second compound 0.1 µM, first compound 0.00316 µM): 103%
viability, T/C (second compound 0.1 µM, first compound 0.00999 µM): 92.3%
viability, T/C [3]: 86.2%
viability, T/C (second compound 0.1 µM, first compound 0.0999 µM): 76.8%
viability, T/C [4]: 63.3%
viability, T/C (second compound 0.316 µM, first compound 0.000999 µM): 82.3%
viability, T/C (second compound 0.316 µM, first compound 0.00316 µM): 81.9%
viability, T/C (second compound 0.316 µM, first compound 0.00999 µM): 87.3%
viability, T/C [5]: 97.8%
viability, T/C (second compound 0.316 µM, first compound 0.0999 µM): 91.5%
viability, T/C [6]: 69.3%
viability, T/C (second compound 1 µM, first compound 0.000999 µM): 79.3%
viability, T/C (second compound 1 µM, first compound 0.00316 µM): 91.1%
viability, T/C (second compound 1 µM, first compound 0.00999 µM): 108%
viability, T/C [7]: 90.6%
viability, T/C (second compound 1 µM, first compound 0.0999 µM): 96.9%
viability, T/C [8]: 68.9%
viability, T/C (second compound 3.16 µM, first compound 0.000999 µM): 63.8%
viability, T/C (second compound 3.16 µM, first compound 0.00316 µM): 79.7%
viability, T/C (second compound 3.16 µM, first compound 0.00999 µM): 90.4%
viability, T/C [9]: 86.4%
viability, T/C (second compound 3.16 µM, first compound 0.0999 µM): 95.2%
viability, T/C [10]: 65.9%
viability, T/C (second compound 10 µM, first compound 0.000999 µM): 86.3%
viability, T/C (second compound 10 µM, first compound 0.00316 µM): 88.6%
viability, T/C (second compound 10 µM, first compound 0.00999 µM): 98.7%
viability, T/C [11]: 103%
viability, T/C (second compound 10 µM, first compound 0.0999 µM): 99.6%
viability, T/C [12]: 73.3%

COc1cc(C2c3cc4c(cc3C(OC3OC5COC(C)OC5C(O)C3O)C3COC(=O)C23)OCO4)cc(OC)c1O (stereo unspecified) + Cc1cnc(CNC(=O)c2c(=O)c3ccc(N4CCCN(C)CC4)nc3n3c2sc2ccccc23)cn1
IC50 (second compound 0.0316 µM): > 10 µM
IC50 (second compound 0.1 µM): > 10 µM
IC50 (second compound 0.316 µM): 5.74 µM
IC50 (second compound 1 µM): > 10 µM
IC50 (second compound 3.16 µM): > 10 µM
IC50 (second compound 10 µM): > 10 µM
viability, T/C [1]: 113%
viability, T/C [13]: 97.7%
viability, T/C [2]: 101%
viability, T/C [14]: 60.2%
viability, T/C [15]: 78.6%
viability, T/C [16]: 53%
viability, T/C [3]: 109%
viability, T/C [17]: 96.5%
viability, T/C [4]: 84.9%
viability, T/C [18]: 71.3%
viability, T/C [19]: 63.2%
viability, T/C [20]: 76.7%
viability, T/C [5]: 78%
viability, T/C [21]: 109%
viability, T/C [6]: 104%
viability, T/C [22]: 89.1%
viability, T/C [23]: 60%
viability, T/C [24]: 40.9%
viability, T/C [7]: 88.1%
viability, T/C [25]: 84.1%
viability, T/C [8]: 97.3%
viability, T/C [26]: 101%
viability, T/C [27]: 75.3%
viability, T/C [28]: 63.3%
viability, T/C [9]: 62.1%
viability, T/C [29]: 99.2%
viability, T/C [10]: 104%
viability, T/C [30]: 86.2%
viability, T/C [31]: 76.4%
viability, T/C [32]: 50.7%
viability, T/C [11]: 71.4%
viability, T/C [33]: 84.9%
viability, T/C [12]: 106%
viability, T/C [34]: 98.5%
viability, T/C [35]: 88.6%
viability, T/C [36]: 69.5%

CC(C)(O)C1CCC(Nc2ccc3ncc(-c4cccc(C(F)(F)F)c4)n3n2)CC1 (stereo unspecified) + Cc1[nH]c2ccc(F)cc2c1-c1nc2c3cccnc3c3ncccc3c2[nH]1
IC50 (second compound 0.0316 µM): > 10 µM
IC50 (second compound 0.1 µM): > 10 µM
IC50 (second compound 0.316 µM): > 10 µM
IC50 (second compound 1 µM): > 10 µM
IC50 (second compound 3.16 µM): > 10 µM
IC50 (second compound 10 µM): > 10 µM
viability, T/C [1]: 114%
viability, T/C [13]: 107%
viability, T/C [2]: 103%
viability, T/C [14]: 108%
viability, T/C [15]: 107%
viability, T/C [16]: 114%
viability, T/C [3]: 120%
viability, T/C [17]: 103%
viability, T/C [4]: 97.5%
viability, T/C [18]: 103%
viability, T/C [19]: 99.3%
viability, T/C [20]: 105%
viability, T/C [5]: 101%
viability, T/C [21]: 105%
viability, T/C [6]: 108%
viability, T/C [22]: 101%
viability, T/C [23]: 104%
viability, T/C [24]: 99.4%
viability, T/C [7]: 115%
viability, T/C [25]: 99%
viability, T/C [8]: 101%
viability, T/C [26]: 101%
viability, T/C [27]: 97.7%
viability, T/C [28]: 90.5%
viability, T/C [9]: 94.9%
viability, T/C [29]: 97.2%
viability, T/C [10]: 93.5%
viability, T/C [30]: 90.7%
viability, T/C [31]: 104%
viability, T/C [32]: 96.9%
viability, T/C [11]: 98.1%
viability, T/C [33]: 80.3%
viability, T/C [12]: 88.9%
viability, T/C [34]: 97.4%
viability, T/C [35]: 78.3%
viability, T/C [36]: 79.6%
